From ChEMBL document CHEMBL2034887, “Substituted phenoxypropyl-(R)-2-methylpyrrolidine aminomethyl ketones as histamine-3 receptor inverse agonists” (Bioorg Med Chem Lett, 2012)

Assays:
[1] = target: Histamine H3 receptor (Rattus norvegicus, UniProt Q9QYN8); experiment: Displacement of [3H]NAMH from rat histamine H3 receptor expressed in CHO cells; assay type: cell-based
[2] = target: T1, Histamine H3 receptor (Homo sapiens, UniProt Q9Y5N1); experiment: Displacement of [3H]NAMH from human histamine H3 receptor expressed in CHO cells; assay type: cell-based
T1 sequence (Q9Y5N1 whole entry): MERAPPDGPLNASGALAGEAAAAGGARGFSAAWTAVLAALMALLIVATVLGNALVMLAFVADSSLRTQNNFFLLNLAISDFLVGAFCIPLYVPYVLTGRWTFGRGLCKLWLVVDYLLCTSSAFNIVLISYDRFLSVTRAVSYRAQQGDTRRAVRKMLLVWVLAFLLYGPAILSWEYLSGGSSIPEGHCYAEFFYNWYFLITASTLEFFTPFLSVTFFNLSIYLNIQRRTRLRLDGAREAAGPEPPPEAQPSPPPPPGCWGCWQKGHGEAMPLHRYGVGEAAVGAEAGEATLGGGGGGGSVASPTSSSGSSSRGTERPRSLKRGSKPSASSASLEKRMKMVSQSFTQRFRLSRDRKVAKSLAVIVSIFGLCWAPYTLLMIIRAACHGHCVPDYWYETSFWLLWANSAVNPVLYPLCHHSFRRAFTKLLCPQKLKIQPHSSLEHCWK

[3] = target: T2, Cytochrome P450 1A2 (Homo sapiens, UniProt P05177); experiment: Inhibition of CYP1A2; assay type: ADME
T2 sequence (P05177 whole entry): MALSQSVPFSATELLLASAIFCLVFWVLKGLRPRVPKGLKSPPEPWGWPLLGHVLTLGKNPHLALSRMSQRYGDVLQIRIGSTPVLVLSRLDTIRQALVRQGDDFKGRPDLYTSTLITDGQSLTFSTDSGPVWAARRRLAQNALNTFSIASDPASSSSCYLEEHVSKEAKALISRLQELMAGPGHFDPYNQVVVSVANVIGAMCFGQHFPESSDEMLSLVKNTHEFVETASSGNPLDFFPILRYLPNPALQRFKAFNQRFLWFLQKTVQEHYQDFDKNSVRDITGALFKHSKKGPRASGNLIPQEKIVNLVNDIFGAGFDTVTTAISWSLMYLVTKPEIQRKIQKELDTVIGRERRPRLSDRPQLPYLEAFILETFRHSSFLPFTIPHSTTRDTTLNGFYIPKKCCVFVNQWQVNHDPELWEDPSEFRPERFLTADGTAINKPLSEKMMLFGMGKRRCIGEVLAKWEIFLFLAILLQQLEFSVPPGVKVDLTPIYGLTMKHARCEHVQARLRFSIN

[4] = Half life in mouse liver microsomes; assay type: ADME, Microsome
[5] = target: Cytochrome P450 2D6 (Homo sapiens, UniProt P10635); experiment: Inhibition of CYP2D6; assay type: ADME
Sequence of Cytochrome P450 2D6 (P10635 whole entry): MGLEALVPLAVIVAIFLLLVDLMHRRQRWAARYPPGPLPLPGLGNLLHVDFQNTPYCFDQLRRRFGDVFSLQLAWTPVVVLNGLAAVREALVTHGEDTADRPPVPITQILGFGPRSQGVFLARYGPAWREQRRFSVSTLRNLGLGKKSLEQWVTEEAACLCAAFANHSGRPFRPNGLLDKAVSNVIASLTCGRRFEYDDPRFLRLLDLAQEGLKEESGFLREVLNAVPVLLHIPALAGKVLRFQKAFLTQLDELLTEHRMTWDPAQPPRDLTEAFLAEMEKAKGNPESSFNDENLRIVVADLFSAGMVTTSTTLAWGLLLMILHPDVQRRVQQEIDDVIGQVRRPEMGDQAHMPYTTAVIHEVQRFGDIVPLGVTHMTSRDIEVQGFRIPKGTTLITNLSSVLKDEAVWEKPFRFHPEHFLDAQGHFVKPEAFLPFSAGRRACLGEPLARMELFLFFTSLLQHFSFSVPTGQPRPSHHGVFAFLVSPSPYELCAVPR

[6] = test system: Rattus norvegicus; experiment: Inhibition of RAMH-induced dipsogenia in ip dosed rat; assay type: functional
[7] = Half life in dog liver microsomes; assay type: ADME, Canis lupus familiaris, Microsome
[8] = Oral bioavailability in rat at 5 mg/kg; assay type: ADME, organism-based; details: in vivo
[9] = target: T1, Histamine H3 receptor; experiment: Antagonist activity at human histamine H3 receptor assessed as inhibition of [35S]-GTPgammaS binding; assay type: functional
[10] = target: T1, Histamine H3 receptor; experiment: Inverse agonist activity at human histamine H3 receptor by [35S]-GTPgammaS binding assay; assay type: functional
[11] = Half life in rat liver microsomes; assay type: ADME, Microsome
[12] = Volume of distribution in rat at […], iv; assay type: ADME, organism-based; details: in vivo
[13] = Half life in rat at […], iv; assay type: ADME, organism-based; details: in vivo
[14] = Clearance in rat at […], iv; assay type: ADME, organism-based; details: in vivo
[15] = Ratio of drug level in brain to plasma in rat at 5 mg/kg, po measured after 6 hrs; assay type: ADME, organism-based; set-up: dose 5 mg/kg, route oral; details: read-out: BPR
[16] = Cmax in rat at 5 mg/kg, po; assay type: ADME, organism-based; set-up: dose 5 mg/kg, route oral; details: in vivo
[17] = target: Cytochrome P450 2C9 (Homo sapiens, UniProt P11712); experiment: Inhibition of CYP2C9; assay type: ADME
Sequence of Cytochrome P450 2C9 (P11712 whole entry): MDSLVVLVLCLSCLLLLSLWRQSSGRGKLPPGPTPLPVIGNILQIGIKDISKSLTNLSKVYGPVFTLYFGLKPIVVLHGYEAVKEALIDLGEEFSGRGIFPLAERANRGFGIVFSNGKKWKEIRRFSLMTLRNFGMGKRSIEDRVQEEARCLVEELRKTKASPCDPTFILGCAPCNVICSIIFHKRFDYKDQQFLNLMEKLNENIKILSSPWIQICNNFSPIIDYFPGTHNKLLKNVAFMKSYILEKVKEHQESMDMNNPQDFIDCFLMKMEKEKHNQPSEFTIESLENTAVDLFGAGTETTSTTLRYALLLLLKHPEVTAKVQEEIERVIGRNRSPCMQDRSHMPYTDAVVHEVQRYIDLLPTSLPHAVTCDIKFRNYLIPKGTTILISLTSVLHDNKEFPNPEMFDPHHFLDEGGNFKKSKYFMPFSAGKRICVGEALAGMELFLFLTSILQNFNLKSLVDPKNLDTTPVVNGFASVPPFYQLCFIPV

[18] = AUC in rat at 5 mg/kg, po; assay type: ADME, organism-based; set-up: dose 5 mg/kg, route oral; details: plasma
[19] = target: Cytochrome P450 3A4 (Homo sapiens, UniProt P08684); experiment: Inhibition of CYP3A4; assay type: ADME
Sequence of Cytochrome P450 3A4 (P08684 whole entry): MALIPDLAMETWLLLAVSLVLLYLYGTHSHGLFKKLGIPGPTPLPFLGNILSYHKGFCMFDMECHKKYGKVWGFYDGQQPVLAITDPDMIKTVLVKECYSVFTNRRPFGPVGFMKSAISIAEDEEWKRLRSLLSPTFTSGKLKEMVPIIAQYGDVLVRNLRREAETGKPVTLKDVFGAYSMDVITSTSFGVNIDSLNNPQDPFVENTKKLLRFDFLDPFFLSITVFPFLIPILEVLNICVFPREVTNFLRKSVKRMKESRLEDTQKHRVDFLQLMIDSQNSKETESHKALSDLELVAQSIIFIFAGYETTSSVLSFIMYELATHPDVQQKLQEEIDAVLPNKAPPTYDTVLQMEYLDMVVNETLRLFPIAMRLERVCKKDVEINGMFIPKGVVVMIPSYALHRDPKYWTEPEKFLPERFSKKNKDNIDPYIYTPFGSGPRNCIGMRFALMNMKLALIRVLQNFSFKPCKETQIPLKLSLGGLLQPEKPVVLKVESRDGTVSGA

[20] = target: Cytochrome P450 2C19 (Homo sapiens, UniProt P33261); experiment: Inhibition of CYP2C19; assay type: ADME
Sequence of Cytochrome P450 2C19 (P33261 whole entry): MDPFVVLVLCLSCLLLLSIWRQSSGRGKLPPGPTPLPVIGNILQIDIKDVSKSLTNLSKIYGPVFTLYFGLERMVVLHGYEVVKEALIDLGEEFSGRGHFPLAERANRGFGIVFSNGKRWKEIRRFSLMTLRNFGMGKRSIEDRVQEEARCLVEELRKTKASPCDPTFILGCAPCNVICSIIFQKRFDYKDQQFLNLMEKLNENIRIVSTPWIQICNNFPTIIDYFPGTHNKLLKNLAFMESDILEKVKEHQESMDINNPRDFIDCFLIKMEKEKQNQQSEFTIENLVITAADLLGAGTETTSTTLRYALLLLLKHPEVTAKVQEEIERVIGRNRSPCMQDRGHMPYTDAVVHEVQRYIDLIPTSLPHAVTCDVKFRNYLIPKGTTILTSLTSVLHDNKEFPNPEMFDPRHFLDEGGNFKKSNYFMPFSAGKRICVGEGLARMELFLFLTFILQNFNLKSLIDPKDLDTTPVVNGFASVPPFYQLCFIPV

[21] = test system: Rattus norvegicus; experiment: Wake promoting activity in EEG/EMG Sprague-Dawley rat model at 30 mg/kg, ip measured after 4 hrs relative to vehicle-treated control; assay type: functional; details: route intraperitoneal
[22] = Half life in human liver microsomes; assay type: ADME, Microsome
[23] = Half life in monkey liver microsomes; assay type: ADME, Macaca mulatta, Microsome; details: rhesus monkey

Sequence of Histamine H3 receptor (Rattus norvegicus, UniProt Q9QYN8) (Q9QYN8 whole entry): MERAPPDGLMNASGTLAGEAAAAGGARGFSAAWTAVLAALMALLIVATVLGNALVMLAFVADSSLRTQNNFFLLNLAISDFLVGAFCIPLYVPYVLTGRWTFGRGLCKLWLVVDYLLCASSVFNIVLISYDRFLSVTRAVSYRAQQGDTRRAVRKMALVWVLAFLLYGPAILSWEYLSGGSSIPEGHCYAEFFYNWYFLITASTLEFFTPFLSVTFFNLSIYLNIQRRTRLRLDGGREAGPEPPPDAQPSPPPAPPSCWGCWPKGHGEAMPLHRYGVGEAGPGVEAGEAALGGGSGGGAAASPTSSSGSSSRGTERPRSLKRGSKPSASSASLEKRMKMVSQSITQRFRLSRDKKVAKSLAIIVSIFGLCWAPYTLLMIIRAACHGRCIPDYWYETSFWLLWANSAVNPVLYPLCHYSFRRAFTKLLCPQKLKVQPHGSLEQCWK

## C[C@@H]1CCCN1CCCOc1ccc(C(=O)CN2CCN(C(=O)c3cccs3)CC2)cc1
[1]
  Ki: 9 nM
[2]
  Ki: 4.2 nM

## C[C@@H]1CCCN1CCCOc1ccc(C(=O)CN2CCC(C#N)CC2)cc1
[1]
  Ki: 23 nM
[2]
  Ki: 6.3 nM

## C[C@@H]1CCCN1CCCOc1ccc(C(=O)CN2CCN(C(=O)c3cc4ccccc4s3)CC2)cc1
[1]
  Ki: 4 nM
[2]
  Ki: 1.2 nM

## C[C@@H]1CCCN1CCCOc1ccc(C(=O)CN2CCN(C(=O)c3ccc(F)cc3)CC2)cc1
[1]
  Ki: 5.8 nM
[2]
  Ki: 0.6 nM

## C[C@@H]1CCCN1CCCOc1ccc(C(=O)CN2CCN(C(=O)c3ccccc3)CC2)cc1
[3]
  IC50: > 30000 nM
[4]
  half-life: > 40 min
[5]
  IC50: > 30000 nM
[6]
  ED50: 0.43 mg/kg
  inhibition: Dose-dependent effect
[7]
  half-life: > 40 min
[1]
  Ki: 14 nM
[8]
  bioavailability: 14%
[9]
  Kb: 0.8 nM
[10]
  EC50: 1 nM
[11]
  half-life: > 40 min
[12]
  Vd: 1.4 L/kg
[13]
  half-life: 72 min
[14]
  clearance: 14 mL/min/kg
[15]
  Kp at 6 h: 1.5
[16]
  Cmax: 165 ng/mL
[17]
  IC50: > 30000 nM
[18]
  AUC: 689 ng·h/mL
[19]
  IC50: > 30000 nM
[20]
  IC50: > 30000 nM
[21]
  Activity: 33%
[2]
  Ki: 1.9 nM
[22]
  half-life: > 40 min
[23]
  half-life: > 40 min

## CC(C)COC(=O)N1CCN(CC(=O)c2ccc(OCCCN3CCC[C@H]3C)cc2)CC1
[1]
  Ki: 12 nM
[2]
  Ki: 4.6 nM

## C[C@@H]1CCCN1CCCOc1ccc(C(=O)CN2CCC(F)(F)C2)cc1
[1]
  Ki: 21 nM
[2]
  Ki: 3.4 nM

## C[C@@H]1CCCN1CCCOc1ccc(C(=O)CN2CCN(S(C)(=O)=O)CC2)cc1
[1]
  Ki: 26 nM
[15]
  Kp at 6 h: < 0.6
[2]
  Ki: 3.4 nM

## C[C@@H]1CCCN1CCCOc1ccc(C(=O)CN2CCN(C(=O)c3ccco3)CC2)cc1
[1]
  Ki: 16 nM
[15]
  Kp at 6 h: < 0.6
[2]
  Ki: 2 nM

## CC(=O)N1CCN(CC(=O)c2ccc(OCCCN3CCC[C@H]3C)cc2)CC1
[1]
  Ki: 30 nM
[15]
  Kp at 6 h: < 0.6
[2]
  Ki: 2.8 nM
